Counter-ions that a name gives are not always drawn.
Assays:
[1] = target: T1, P2X7 (Homo sapiens (Human), UniProt Q99572); assay: P2X7 antagonism in human PBMCs (LPS + Bz-ATP induced IL-1β release, ELISA); type: cell-based; conditions: LPS 30 ng/ml, Bz-ATP 0.5 mM; for PBMC 10 μM (% control): compound 10 μM; for PBMC 1 μM (% control): compound 1 μM;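 as to all read-outs here: PBMCs from donor human blood, with a further 1.5 h incubation of the cells in the assay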
Procedure: Human blood was collected using a blood donor program. PBMCs were isolated from blood using a Ficoll density gradient technique. Briefly, blood was laid on Ficoll solution and centrifuged at RT for 20 minutes at 2000 rpm. The buffy layer (between red blood cells and plasma) was carefully collected by aspiration, washed with PBS and centrifuged again at 1500 rpm for 15 minutes. The resulting cell pellet was washed and plated on 96 well-plates for experiments. For the Mouse/Human Whole Blood experiments, 150 μl of either mouse or human blood was platted on 96 well-plates. Lipopolysaccharide (LPS) (30 ng/ml) was added to each well and incubated for 1 hour. Test compounds were then added and incubated for 30 minutes. The P2X7 agonist, 2′(3′)-O-(4-benzoylbenzoyl) adenosine 5′ triphosphate (Bz-ATP) was then added at a final concentration of 0.5 mM (PBMC) or 1 mM (blood). Cells were incubated for an additional 1.5 hours. At that point, supernatant was collected and stored for IL-1β assay using manufacturer's protocol for enzyme-linked immunosorbent assay (ELISA). Data was expressed as percent control, where control is defined as the difference in IL-1β release in LPS+Bz-ATP samples and LPS only samples. Data was plotted as response (% control) versus concentration to generate IC50 values.

[2] = target: T1, P2X7; assay: Radioligand binding, tritiated A-804598, human P2X7-1321N1 cell membranes; conditions: 1 hour at 4° C.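 Also: ki obtained from the binding IC50 after correction for tracer concentration and tracer affinity.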
Procedure: On the day of the experiment, cell membrane preparations were made according to standard published methods. […] The assay was terminated by filtration (GF/B filters pre-soaked with 0.3% PEI) and washed with washing buffer (Tris-HCl 50 mM). The IC50 generated in the binding assay was corrected for tracer concentration and affinity of the tracer to derive at the affinity (Ki) of the test compounds.

[3] = target: T1, P2X7; assay: Ca2+ flux (FLIPR) in 1321N1 cells expressing recombinant human P2X7 channel; type: cell-based; conditions: 250 μM BzATP;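 also: Calcium-4 dye-loaded cells exposed to compound for 30 min before agonist addition, fluorescence change read 180 s after agonist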
[4] = target: rat P2X7 (Rattus norvegicus (Rat), UniProt Q64663); assay: Ca2+ flux (FLIPR) in 1321N1 cells expressing recombinant rat P2X7 channel; type: cell-based; conditions: 250 μM BzATP;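 also: Calcium-4 dye fluorescence change read 180 s after agonist addition, following 30 min cell preincubation with test compound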
Chain of rat P2X7 (Q64663 whole entry): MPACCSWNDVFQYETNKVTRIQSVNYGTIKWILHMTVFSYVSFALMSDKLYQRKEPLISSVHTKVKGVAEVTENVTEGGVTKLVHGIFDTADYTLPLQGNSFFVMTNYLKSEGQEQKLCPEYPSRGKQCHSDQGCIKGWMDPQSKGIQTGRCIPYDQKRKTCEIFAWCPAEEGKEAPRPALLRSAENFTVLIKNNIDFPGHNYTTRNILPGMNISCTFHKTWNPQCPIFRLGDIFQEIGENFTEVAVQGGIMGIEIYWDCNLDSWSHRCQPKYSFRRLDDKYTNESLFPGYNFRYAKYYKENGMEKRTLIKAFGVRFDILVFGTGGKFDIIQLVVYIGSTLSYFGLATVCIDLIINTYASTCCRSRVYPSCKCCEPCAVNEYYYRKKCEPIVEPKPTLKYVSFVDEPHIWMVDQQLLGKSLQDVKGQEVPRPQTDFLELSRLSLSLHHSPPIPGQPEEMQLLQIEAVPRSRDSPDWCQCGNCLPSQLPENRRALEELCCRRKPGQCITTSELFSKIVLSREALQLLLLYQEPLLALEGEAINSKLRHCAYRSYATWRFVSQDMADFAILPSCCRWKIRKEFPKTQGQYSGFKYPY
Procedure: Cells were seeded at a density of 25000 cells/well (96-well clear bottom black walled plates) in 100 μl volume/well. On the day of the experiment, cell plates were washed with assay buffer, containing (in mM): 130 NaCl, 2 KCl, 1 CaCl2, 1 MgCl2, 10 HEPES, 5 glucose; pH 7.40 and 300 mOs. After the wash, cells were loaded with the Calcium-4 dye (Molecular Device) and incubated in the dark for 60 minutes. Test compounds were prepared at 250× the test concentration in neat DMSO. Intermediate 96-well compound plates were prepared by transferring 1.2 μL of the compound into 300 μL of assay buffer. A further 3× dilution occurred when transferring 50 μL/well of the compound plate to 100 μL/well in the cell plate. Cells were incubated with test compounds and dye for 30 minutes. […] The fluorescence change was measured 180 seconds after adding the agonist.

T1 sequence (Q99572 whole entry): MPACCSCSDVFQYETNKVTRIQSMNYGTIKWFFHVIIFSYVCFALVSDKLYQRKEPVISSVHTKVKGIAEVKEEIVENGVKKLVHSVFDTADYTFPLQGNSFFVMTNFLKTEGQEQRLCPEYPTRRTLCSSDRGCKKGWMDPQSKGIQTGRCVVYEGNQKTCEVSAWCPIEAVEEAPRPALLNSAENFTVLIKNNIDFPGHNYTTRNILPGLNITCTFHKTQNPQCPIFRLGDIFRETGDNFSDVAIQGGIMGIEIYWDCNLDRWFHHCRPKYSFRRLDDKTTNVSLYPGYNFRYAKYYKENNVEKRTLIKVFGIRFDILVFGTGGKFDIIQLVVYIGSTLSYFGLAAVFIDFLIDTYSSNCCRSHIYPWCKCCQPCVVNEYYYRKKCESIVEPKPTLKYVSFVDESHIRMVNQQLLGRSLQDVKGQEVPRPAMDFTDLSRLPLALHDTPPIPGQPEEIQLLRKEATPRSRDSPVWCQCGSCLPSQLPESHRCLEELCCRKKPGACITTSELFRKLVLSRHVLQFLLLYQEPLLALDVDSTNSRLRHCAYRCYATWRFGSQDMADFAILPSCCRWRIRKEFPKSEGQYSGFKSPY

Structure (SMILES) | PBMC 10 μM (% control) [1] [% control] | Ki [2] [nM] | IC50 [3] [nM] | IC50 [4] [nM] | PBMC 1 μM (% control) [1] [% control]
O=C(c1cccc(C(F)(F)F)c1Cl)N1CCc2c(-c3ncccn3)n[nH]c2C1 [Example 98, 6-{[2-Chloro-3-(trifluoromethyl)phenyl]carbonyl}-3-pyrimidin-2-yl-4,5,6,7-tetrahydro-2H-pyrazolo[3,4-c]pyridine] | 32.5 | 14.1 | 6.6 | 548 | –
O=C(c1cccc(C(F)(F)F)c1Cl)N1CCc2c(ncn2-c2ccn[nH]2)C1 [Example 5, (1-(1H-Pyrazol-5-yl)-6,7-dihydro-1H-imidazo[4,5-c]pyridin-5(4H)-yl)(2-chloro-3-(trifluoromethyl)phenyl)methanone] | 11.6 | 31.6 | 12.4 | 324 | –
Cn1ccc(-n2nnc3c2CCN(C(=O)c2cccc(C(F)(F)F)c2Cl)C3)n1 [Example 127, (2-Chloro-3-(trifluoromethyl)phenyl)(1-(1-methyl-1H-pyrazol-3-yl)-6,7-dihydro-1H-[1,2,3]triazolo[4,5-c]pyridin-5(4H)-yl)methanone] | 9.2 | 39.8 | 22.1 | 89.1 | –
CC1c2nnn(-c3ncccn3)c2C=CN1C(=O)c1cccc(C(F)(F)F)c1Cl (stereo not drawn) [Example 79, 5-{[2-Chloro-3-(trifluoromethyl)phenyl]carbonyl}-4-methyl-1-pyrimidin-2-yl-4,5-dihydro-1H-[1,2,3]triazolo[4,5-c]pyridine] | – | 31.6 | 6.2 | 86.5 | 23.2
CC1c2nnn(-c3ncc(F)cn3)c2CCN1C(=O)c1cccc(Cl)c1Cl (stereo not drawn) [Example 174, (2,3-Dichlorophenyl)(1-(5-fluoropyrimidin-2-yl)-4-methyl-6,7-dihydro-1H-[1,2,3]triazolo[4,5-c]pyridin-5(4H)-yl)methanone] | 4.2 | 50.1 | 3.3 | 1680 | –
CC1c2ncn(-c3ccc(F)cc3)c2CCN1C(=O)c1cccc(C(F)(F)F)c1F (stereo not drawn) [Example 20, (2-Fluoro-3-(trifluoromethyl)phenyl)(1-(4-fluorophenyl)-4-methyl-6,7-dihydro-1H-imidazo[4,5-c]pyridin-5(4H)-yl)methanone] | 8.6 | 501 | 931 | 2370 | –
O=C(C1c2ncn(-c3ccccn3)c2CCN1C(=O)c1cccc(C(F)(F)F)c1Cl)N1CCC1 (stereo not drawn) [Example 35, 4-(Azetidin-1-ylcarbonyl)-5-{[2-chloro-3-(trifluoromethyl)phenyl]carbonyl}-1-pyridin-2-yl-4,5,6,7-tetrahydro-1H-imidazo[4,5-c]pyridine] | – | 316 | 316 | 316 | 31.6
O=C(c1cccc(C(F)(F)F)c1F)N1CCc2c(nnn2-c2ccccn2)C1 [Example 123, (2-Fluoro-3-(trifluoromethyl)phenyl)(1-(pyridin-2-yl)-6,7-dihydro-1H-[1,2,3]triazolo[4,5-c]pyridin-5(4H)-yl)methanone] | – | 63.1 | 50.1 | 1000 | 22.0
O=C(c1cccc(C(F)(F)F)c1Cl)N1CCc2c(-c3ccccn3)n[nH]c2C1 [Example 93, 6-{[2-Chloro-3-(trifluoromethyl)phenyl]carbonyl}-3-pyridin-2-yl-4,5,6,7-tetrahydro-2H-pyrazolo[3,4-c]pyridine. TFA salt] | – | 39.8 | 7.9 | 251 | 9.0
O=C(c1cccc(Cl)c1Cl)N1CCc2c(nnn2-c2ccccc2)C1 [Example 62, 5-[(2,3-Dichlorophenyl)carbonyl]-1-phenyl-4,5,6,7-tetrahydro-1H-[1,2,3]triazolo[4,5-c]pyridine] | – | 43.7 | 76.2 | 4280 | 5.2
CC1Cc2c(nnn2-c2ccc(F)cc2)C(C)N1C(=O)c1cccc(Cl)c1Cl (stereo not drawn) [Example 242, (2,3-Dichlorophenyl)(1-(4-fluorophenyl)-4,6-dimethyl-6,7-dihydro-1H-[1,2,3]triazolo[4,5-c]pyridin-5(4H)-yl)methanone] | −3.4 | 25.1 | 81.5 | 60.4 | –
CC1Cc2c(nnn2-c2cc[nH]n2)CN1C(=O)c1cccc(C(F)(F)F)c1F (stereo not drawn) [Example 189, (2-fluoro-3-(trifluoromethyl)phenyl)(6-methyl-1-(1H-pyrazol-3-yl)-6,7-dihydro-1H-[1,2,3]triazolo[4,5-c]pyridin-5(4H)-yl)methanone] | 0.5 | 13.5 | 3.9 | 6.3 | –
CC1CN(C(=O)c2cccc(C(F)(F)F)c2Cl)Cc2nnn(-c3ccc(F)cc3)c21 (stereo not drawn) [Example 246, (2-Chloro-3-(trifluoromethyl)phenyl)(1-(4-fluorophenyl)-7-methyl-6,7-dihydro-1H-[1,2,3]triazolo[4,5-c]pyridin-5(4H)-yl)methanone] | −3.1 | 174 | 230 | 6530 | –
Cc1c(C(=O)N2CCc3c(nnn3-c3ncccn3)C2)cccc1C(F)(F)F [Example 281, (2-methyl-3-(trifluoromethyl)phenyl)(1-(pyrimidin-2-yl)-6,7-dihydro-1H-[1,2,3]triazolo[4,5-c]pyridin-5(4H)-yl)methanone] | −1.9 | 2.3 | 3.1 | 163 | –
O=C(c1ccnc(Cl)c1Cl)N1CCc2c(-c3ccccc3)n[nH]c2C1 [Example 104, 6-[(2,3-Dichloropyridin-4-yl)carbonyl]-3-phenyl-4,5,6,7-tetrahydro-1H-pyrazolo[3,4-c]pyridine] | – | 50.1 | 205 | 1610 | 8.9
CCC1c2ncn(-c3cnccn3)c2C=CN1C(=O)c1cccc(C(F)(F)F)c1Cl (stereo not drawn) [Example 55, 5-{[2-Chloro-3-(trifluoromethyl)phenyl]carbonyl}-4-ethyl-1-pyrazin-2-yl-4,5-dihydro-1H-imidazo[4,5-c]pyridine] | – | 126 | 16.7 | 259 | 11.3
CC1c2nnn(-c3ccc(F)cc3)c2C=CN1C(=O)c1cccc(C(F)(F)F)c1Cl (stereo not drawn) [Example 81, 5-{[2-Chloro-3-(trifluoromethyl)phenyl]carbonyl}-1-(4-fluorophenyl)-4-methyl-4,5-dihydro-1H-[1,2,3]triazolo[4,5-c]pyridine] | 5.9 | 63.1 | 73.5 | 108 | –
O=C(c1cccc(C(F)(F)F)c1Cl)N1C=Cc2c(nnn2-c2ccccn2)C1 [Example 90, 5-{[2-Chloro-3-(trifluoromethyl)phenyl]carbonyl}-1-pyridin-2-yl-4,5-dihydro-1H-[1,2,3]triazolo[4,5-c]pyridine] | – | 29.5 | 10.3 | 973 | 13.3
O=C(c1cccc(C(F)(F)F)c1Cl)N1CCc2c(nnn2-c2ccccc2OCCF)C1 [Example 126, (2-Chloro-3-(trifluoromethyl)phenyl)(1-(2-(2-fluoroethoxy)phenyl)-6,7-dihydro-1H-[1,2,3]triazolo[4,5-c]pyridin-5(4H)-yl)methanone] | – | 93.3 | 85.5 | – | 71.7

From US9464084B2, “P2X7 modulators” (Janssen Pharmaceutica NV, priority 2013, dated 2016)
